Measured values from patent publication US6358967B1, “Ergoline amine derivatives with blood pressure lowering effect” (priority 1998, dated 2002).
Structures can show the parent of a compound that is named as a salt.

System: normotensive Wistar rats
Test: Invasive blood pressure measurement in anesthetized rats, i.v. administration
Assay type: in vivo, rat
Description: Male Wistar rats with a body weight (BW) of 300-450 g were used as experimental animals. The rats are anesthetized immediately before the experiment with 50 mg/kg pentobarbital Na intraperitoneally (i.p.) or 70 mg/kg inactin i.v. PE tubes are tied into the carotid artery and femoral vein.
To maintain the blood pressure and to prevent formation of thrombi in the PE tubes of the blood vessels, each hour 2.5 ml of heparinized 0.9% strength NaCl solution are infused through the femoral vein and 1.2 ml through the carotid artery.
The arterial blood pressure is measured invasively using a PONEMAH hemodynamic analyzer (HSE, March, Germany). Via the tube in the carotid artery, the arterial blood pressure is mechanoelectrically converted in a Statham transducer (ISOTEC), amplified in a Plugsys (DBA module, type 660), digitized in an A/D converter and input into the PC memory over defined time intervals. The values in the memory are then treated with an adapted algorithm in order to establish the blood pressure parameters to be calculated for heart rate, systolic, diastolic and mean blood pressure.
The ergoline derivatives are administered i.v. through the femoral vein as 5 percent EtOH/NaCl (0.9%) solution, 1 ml/kg in a dosage of 0.5 mg/kg test substance.

[1] = assessment class of duration, 0.5 mg/kg i.v., Table 1.1
[2] = assessment class of pressure fall, 0.5 mg/kg i.v., Table 1.1
[3] = change shown as arrow, Wistar rats, 0.5 mg/kg i.v., Table 1.1
[4] = duration of blood pressure effect, Wistar rats, 0.5 mg/kg i.v., Table 1.1
[5] = effect (fall) on arterial blood pressure, anesthetized Wistar rats, 0.5 mg/kg i.v., Table 1.1
[6] = assessment class of duration, 0.5 mg/kg i.v., Table 1.2
[7] = assessment class of pressure fall, 0.5 mg/kg i.v., Table 1.2
[8] = change shown as arrow, Wistar rats, 0.5 mg/kg i.v., Table 1.2
[9] = duration of blood pressure effect, 0.5 mg/kg i.v., Table 1.2
[10] = effect (fall) on arterial blood pressure, Wistar rats, 0.5 mg/kg i.v., Table 1.2

CN1CC(CNC(=O)c2ccc(C(=O)NCC3CCCC(CN)C3)cc2)CC2c3cccc4[nH]cc(c34)CC21.O=C(O)C(F)(F)F.O=C(O)C(F)(F)F (mixture of isomers) [Substance 9703127]
Effect pressure/duration: duration [1]: ↓↓/↓↓ (up to 30 min)
Effect pressure/duration: pressure [2]: ↓↓/↓↓ (to 30%)
Heart rate [3]: →
Duration [4]: >25 min
Diastol. pressure [5]: 29.0%
Mean pressure [5]: 27.2%
Systol. pressure [5]: 24.8%

CN1CC(CNC(=O)C2CCC(C(=O)NCCCN3CCN(CCCN)CC3)CC2)CC2c3cccc4[nH]cc(c34)CC21.O=C(O)C(F)(F)F.O=C(O)C(F)(F)F.O=C(O)C(F)(F)F.O=C(O)C(F)(F)F (mixture of isomers) [Substance 9703133]
Diastol. pressure (rat, in vivo, iv, 0.5 mg/kg): 50.0%
Duration (rat, in vivo, iv, 0.5 mg/kg): ca 60 min
Effect pressure/duration: duration (rat, in vivo, iv, 0.5 mg/kg): ↓↓↓/↓↓↓ (key: (↓): < 5 min; ↓: up to 10 min; ↓↓: up to 30 min; ↓↓↓: >30 min)
Effect pressure/duration: pressure (rat, in vivo, iv, 0.5 mg/kg): ↓↓↓/↓↓↓ (key: →: no effect to 5%; (↓): to 10%; ↓: to 20%; ↓↓: to 30%; ↓↓↓: >30%)
Heart rate (rat, in vivo, iv, 0.5 mg/kg): ↑
Mean pressure (rat, in vivo, iv, 0.5 mg/kg): 45.4%
Systol. pressure (rat, in vivo, iv, 0.5 mg/kg): 48.4%

CN1C[C@H](CN)C[C@@H]2c3cccc4[nH]cc(c34)C[C@H]21 [8β-Aminomethyl-6-methylergoline, reference compound]
Effect pressure/duration: duration [1]: ↓↓ (up to 30 min)
Effect pressure/duration: pressure [2]: ↓ (to 20%)
Heart rate [3]: →
Duration [4]: 30 min
Diastol. pressure [5]: 14.3%
Mean pressure [5]: 15.3%
Systol. pressure [5]: 16.4%

CC(C)[C@H]1C(=O)N2CCC[C@H]2[C@]2(O)O[C@](NC(=O)[C@@H]3C[C@@H]4c5cccc6[nH]cc(c56)C[C@H]4N(C)C3)(C(C)C)C(=O)N12 [Dihydroergocornine, reference compound]
Effect pressure/duration: duration [1]: (↓) (< 5 min)
Effect pressure/duration: pressure [2]: ’
Heart rate [3]: →
Duration [4]: 3 min
Diastol. pressure [5]: 4.3%
Mean pressure [5]: 3.3%
Systol. pressure [5]: 5.0%

CN1C[C@H](C(N)=O)CC2c3cccc4[nH]cc(c34)C[C@H]21 (stereo partly drawn) [Dihydrolysergamide, reference compound]
Effect pressure/duration: duration [1]: (↓)/(↓) (< 5 min)
Effect pressure/duration: pressure [2]: (↓)/(↓) (to 10%)
Heart rate [3]: →
Duration [4]: 5 min
Diastol. pressure [5]: 7.1%
Mean pressure [5]: 8.0%
Systol. pressure [5]: 8.0%

Nc1cc(N2CCCCC2)nc(N)[n+]1[O-] [Minoxidil, reference compound]
Effect pressure/duration: duration [1]: ↓/↓ (up to 10 min)
Effect pressure/duration: pressure [2]: ↓/↓ (to 20%)
Heart rate [3]: →
Duration [4]: ca 10 min
Diastol. pressure [5]: 8.1%
Mean pressure [5]: 7.1%
Systol. pressure [5]: 6.6%

CN1CC(CNC(=O)c2ccc(C(=O)NC3CCC(N)CC3)cc2)CC2c3cccc4[nH]cc(c34)CC21.O=C(O)C(F)(F)F.O=C(O)C(F)(F)F (stereo not drawn) [Substance 9703112]
Effect pressure/duration: duration [1]: ↓↓/↓↓ (up to 30 min)
Effect pressure/duration: pressure [2]: ↓↓/↓↓ (to 30%)
Heart rate [3]: →
Duration [4]: 18 min
Diastol. pressure [5]: 31.7%
Mean pressure [5]: 29.2%
Systol. pressure [5]: 25.2%

CN1CC(CNC(=O)CCCCC(=O)NC2CCC(N)CC2)CC2c3cccc4[nH]cc(c34)CC21.O=C(O)C(F)(F)F.O=C(O)C(F)(F)F (stereo not drawn) [Substance 9703114]
Diastol. pressure (rat, in vivo, iv, 0.5 mg/kg): 20.7%
Duration (rat, in vivo, iv, 0.5 mg/kg): 40 min
Effect pressure/duration: duration (rat, in vivo, iv, 0.5 mg/kg): ↓↓/↓↓↓ (key: (↓): < 5 min; ↓: up to 10 min; ↓↓: up to 30 min; ↓↓↓: >30 min)
Effect pressure/duration: pressure (rat, in vivo, iv, 0.5 mg/kg): ↓↓/↓↓↓ (key: →: no effect to 5%; (↓): to 10%; ↓: to 20%; ↓↓: to 30%; ↓↓↓: >30%)
Heart rate (rat, in vivo, iv, 0.5 mg/kg): →
Mean pressure (rat, in vivo, iv, 0.5 mg/kg): 20.3%
Systol. pressure (rat, in vivo, iv, 0.5 mg/kg): 18.8%

CN1CC(CNC(=O)CCCCC(=O)NCc2cccc(CN)c2)CC2c3cccc4[nH]cc(c34)CC21.O=C(O)C(F)(F)F.O=C(O)C(F)(F)F (stereo not drawn) [Substance 9703123]
Diastol. pressure (rat, in vivo, iv, 0.5 mg/kg): 44.3%
Duration (rat, in vivo, iv, 0.5 mg/kg): 7 min
Effect pressure/duration: duration (rat, in vivo, iv, 0.5 mg/kg): ↓↓↓/↓ (key: (↓): < 5 min; ↓: up to 10 min; ↓↓: up to 30 min; ↓↓↓: >30 min)
Effect pressure/duration: pressure (rat, in vivo, iv, 0.5 mg/kg): ↓↓↓/↓ (key: →: no effect to 5%; (↓): to 10%; ↓: to 20%; ↓↓: to 30%; ↓↓↓: >30%)
Heart rate (rat, in vivo, iv, 0.5 mg/kg): →
Mean pressure (rat, in vivo, iv, 0.5 mg/kg): 43.4%
Systol. pressure (rat, in vivo, iv, 0.5 mg/kg): 38.0%

CN1CC(CNC(=O)c2ccc(C(=O)NCCCN3CCN(CCCN)CC3)cc2)CC2c3cccc4[nH]cc(c34)CC21.O=C(O)C(F)(F)F.O=C(O)C(F)(F)F.O=C(O)C(F)(F)F.O=C(O)C(F)(F)F (stereo not drawn) [Substance 9703125]
Diastol. pressure (rat, in vivo, iv, 0.5 mg/kg): 14.0%
Duration (rat, in vivo, iv, 0.5 mg/kg): 90 min
Effect pressure/duration: duration (rat, in vivo, iv, 0.5 mg/kg): ↓/↓↓↓ (key: (↓): < 5 min; ↓: up to 10 min; ↓↓: up to 30 min; ↓↓↓: >30 min)
Effect pressure/duration: pressure (rat, in vivo, iv, 0.5 mg/kg): ↓/↓↓↓ (key: →: no effect to 5%; (↓): to 10%; ↓: to 20%; ↓↓: to 30%; ↓↓↓: >30%)
Heart rate (rat, in vivo, iv, 0.5 mg/kg): →
Mean pressure (rat, in vivo, iv, 0.5 mg/kg): 13.7%
Systol. pressure (rat, in vivo, iv, 0.5 mg/kg): 13.1%

Cc1nc(C)c(C(=O)NC2CCC(N)CC2)cc1C(=O)NCC1CC2c3cccc4[nH]cc(c34)CC2N(C)C1.O=C(O)C(F)(F)F.O=C(O)C(F)(F)F (stereo not drawn) [Substance 9703137]
Effect pressure/duration: duration [1]: ↓↓↓/↓↓↓ (>30 min)
Effect pressure/duration: pressure [2]: ↓↓↓/↓↓↓ (>30%)
Heart rate [3]: →
Duration [4]: ca 95 min
Diastol. pressure [5]: 64.8%
Mean pressure [5]: 60.2%
Systol. pressure [5]: 56.5%

CN1CC(CNC(=O)c2ccc(SSc3ccc(C(=O)NC4CCC(N)CC4)cn3)nc2)CC2c3cccc4[nH]cc(c34)CC21.O=C(O)C(F)(F)F.O=C(O)C(F)(F)F (stereo not drawn) [Substance 9703155]
Effect pressure/duration: duration [6]: ↓↓↓ (> 30 min)
Effect pressure/duration: pressure [7]: ↓↓ (to 30%)
Heart rate [8]: →
Duration [9]: ca 60 min
Diastol. pressure [10]: 25.9%
Mean pressure [10]: 26.9%
Systol. pressure [10]: 24.7%

CN1CC(CNC(=O)c2c(F)c(F)c(F)c(F)c2C(=O)NC2CCC(N)CC2)CC2c3cccc4[nH]cc(c34)CC21.O=C(O)C(F)(F)F.O=C(O)C(F)(F)F (stereo not drawn) [Substance 9703156]
Effect pressure/duration: duration [6]: ↓↓ (up to 30 min)
Effect pressure/duration: pressure [7]: ↓↓↓ (> 30%)
Heart rate [8]: →
Duration [9]: 13 min
Diastol. pressure [10]: 43.4%
Mean pressure [10]: 38.6%
Systol. pressure [10]: 33.4%

CN1CC(CNC(=O)C(F)(F)C(F)(F)C(=O)NC2CCC(N)CC2)CC2c3cccc4[nH]cc(c34)CC21.O=C(O)C(F)(F)F.O=C(O)C(F)(F)F (stereo not drawn) [Substance 9703157]
Effect pressure/duration: duration [6]: ↓↓ (up to 30 min)
Effect pressure/duration: pressure [7]: ↓↓↓ (> 30%)
Heart rate [8]: →
Duration [9]: 30 min
Diastol. pressure [10]: 49.6%
Mean pressure [10]: 48.8%
Systol. pressure [10]: 46.6%

O=C(O)C(F)(F)F [TFA (equimolar), trifluoroacetic acid, reference compound]
Effect pressure/duration: duration [1]: (↓)/(↓) (< 5 min)
Effect pressure/duration: pressure [2]: (↓)/(↓) (to 10%)
Heart rate [3]: →
Duration [4]: >1 min
Diastol. pressure [5]: 5.1%
Mean pressure [5]: 4.6%
Systol. pressure [5]: 4.3%
